Data on 2 compounds can be found in article PMC8300687, “A Fine-Tuned Lipophilicity/Hydrophilicity Ratio Governs Antibacterial Potency and Selectivity of Bifurcated Halogen Bond-Forming NBTIs” (Antibiotics, 2021).

Values after ≈ are worked out from the molar mass of the structure shown. Read-outs that look alike come from different tables or passages of the source. A value given as a limit tells only on which side of the number the result lay.

One experiment concerns the target T1, S. aureus Topo IV (Staphylococcus aureus, UniProt Q2FYS4).
T1 construct: purchased Inspiralis (Norwich, UK)
Description: biochemical. Particulars: mean of two to four measurements; read-out: Topoisomerase IV IC50 S. aureus. The method in brief: (§1)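 Relaxation of supercoiled pNO1 plasmid (0.75 μg) by 1.5 U enzyme, 30 min at 37 °C with inhibitor in 10% DMSO/0.008% Tween 20; S. aureus in Tris pH 7.5, E. coli in HEPES-KOH pH 7.6 with potassium glutamate.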

A further experiment concerns the target T2, E. coli DNA gyrase (Escherichia coli, UniProt P0AES4).
T2 construct: purchased Inspiralis (Norwich, UK)
Description: Gyrase Supercoiling High Throughput Plate assay, E. coli. It is filed as biochemical. In outline:
(§2)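 Inspiralis gyrase supercoiling plate assay: biotinylated oligonucleotide immobilized in wells, reactions stopped with TF buffer (50 mM NaOAc pH 4.7, 50 mM NaCl, 50 mM MgCl2) for 30 min triplex formation with supercoiled plasmid. Bound DNA stained with Diamond dye in T10 buffer; IC50 is mean of two to four independent measurements.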

The test system of another experiment is E. coli (ATCC 25922). Nature of the experiment: MIC broth microdilution, E. coli ATCC 25922. The following applies: Escherichia coli. It is filed as cell-based. In outline:
(§3)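 MIC is the lowest compound dilution without visible turbidity. M. avium was tested in Middlebrook 7H9 with 5% OADC for ≥10 days; other strains at 10^5 CFU/mL final in cation-adjusted Mueller Hinton broth with TES, 18–20 h at 35 °C, following CLSI and EUCAST microdilution guidance.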

In a further experiment the target is T3, E. coli Topo IV (Escherichia coli, UniProt P0AFI2).
T3 construct: purchased Inspiralis (Norwich, UK)
T3 sequence (P0AFI2 whole entry): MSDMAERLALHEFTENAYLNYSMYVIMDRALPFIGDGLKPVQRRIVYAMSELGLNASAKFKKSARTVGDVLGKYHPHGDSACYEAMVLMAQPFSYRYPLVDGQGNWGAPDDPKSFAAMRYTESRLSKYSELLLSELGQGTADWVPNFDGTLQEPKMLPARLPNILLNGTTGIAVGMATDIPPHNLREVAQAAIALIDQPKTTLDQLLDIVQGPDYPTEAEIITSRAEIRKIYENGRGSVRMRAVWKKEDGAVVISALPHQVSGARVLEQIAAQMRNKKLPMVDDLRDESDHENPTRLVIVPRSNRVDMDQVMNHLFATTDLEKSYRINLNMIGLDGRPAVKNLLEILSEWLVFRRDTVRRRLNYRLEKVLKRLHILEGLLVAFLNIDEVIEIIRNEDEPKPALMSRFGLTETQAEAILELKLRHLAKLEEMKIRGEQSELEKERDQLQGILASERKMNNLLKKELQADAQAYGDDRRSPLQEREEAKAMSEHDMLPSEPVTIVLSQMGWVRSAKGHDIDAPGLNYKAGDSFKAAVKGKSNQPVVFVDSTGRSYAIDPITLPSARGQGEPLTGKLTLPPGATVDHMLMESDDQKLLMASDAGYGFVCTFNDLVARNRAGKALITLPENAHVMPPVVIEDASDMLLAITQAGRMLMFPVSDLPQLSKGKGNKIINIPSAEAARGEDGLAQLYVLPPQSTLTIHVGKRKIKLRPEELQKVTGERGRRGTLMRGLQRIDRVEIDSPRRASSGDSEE
T3 sequence (P20083 whole entry, further chain): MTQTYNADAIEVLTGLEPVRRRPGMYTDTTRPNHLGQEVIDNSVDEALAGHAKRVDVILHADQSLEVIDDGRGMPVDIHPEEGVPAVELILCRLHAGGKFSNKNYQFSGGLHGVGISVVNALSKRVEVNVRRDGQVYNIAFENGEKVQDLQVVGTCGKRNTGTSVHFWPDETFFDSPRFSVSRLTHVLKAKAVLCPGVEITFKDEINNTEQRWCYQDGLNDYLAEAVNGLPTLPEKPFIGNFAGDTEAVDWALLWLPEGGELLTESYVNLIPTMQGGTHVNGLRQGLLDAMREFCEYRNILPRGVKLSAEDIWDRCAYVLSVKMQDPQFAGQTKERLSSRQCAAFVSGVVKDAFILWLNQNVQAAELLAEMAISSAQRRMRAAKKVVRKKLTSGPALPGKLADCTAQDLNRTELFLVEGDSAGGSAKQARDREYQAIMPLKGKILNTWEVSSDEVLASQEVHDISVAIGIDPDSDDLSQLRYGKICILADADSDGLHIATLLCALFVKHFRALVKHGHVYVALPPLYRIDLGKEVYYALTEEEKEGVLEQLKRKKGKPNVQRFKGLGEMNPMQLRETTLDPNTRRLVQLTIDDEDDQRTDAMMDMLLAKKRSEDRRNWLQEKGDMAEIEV
Nature of the experiment: Topo IV Relaxation High Throughput Plate assay, E. coli. It is filed as biochemical. Particulars: for LE Topo IV E. coli: LE = (1.37/HA) × pIC50. In outline:
as §1

The test system of the next experiment is HUVEC. Nature of the experiment: Metabolic activity assessment (cytotoxicity), HUVEC. It counts as cell-based. Particulars: Homo sapiens, metabolic activity after 72 h treatment. The method in brief:
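HepG2 and HUVEC cells (passages 7–9) in DMEM with 10% FBS, attached 24 h, then exposed to 1 μM and 50 μM compound or vehicle for 72 h. Metabolic activity by MTS absorbance at 492 nm, as percent of vehicle control; IC50 by non-linear regression from two independent experiments.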

Experiment [1] deals with A. baumannii 8C6 (GES-14). Description: MIC broth microdilution, A. baumannii. It counts as cell-based. Particulars: Acinetobacter baumannii; read-out: MIC A. baumannii 8C6 (GES-14). In outline: as §3
Experiment [2] concerns E. faecalis DRK 057 (ATCC 29212). Nature of the experiment: MIC broth microdilution, E. faecalis. It is filed as cell-based. Particulars: Enterococcus faecalis, ATCC29212; read-out: MIC E. faecalis DRK 057 (ATCC 29212). In outline: as §3
Experiment [3] deals with S. agalactiae RDK 047 (QA-990/02). Description: MIC broth microdilution, S. agalactiae. It is filed as cell-based. Particulars: Streptococcus agalactiae; read-out: MIC S. agalactiae RDK 047 (QA-990/02). In outline:
as §3

In a further experiment the target is T4, S. aureus DNA gyrase (Staphylococcus aureus, UniProt P20831).
T4 construct: purchased Inspiralis (Norwich, UK)
T4 sequence (P20831 whole entry): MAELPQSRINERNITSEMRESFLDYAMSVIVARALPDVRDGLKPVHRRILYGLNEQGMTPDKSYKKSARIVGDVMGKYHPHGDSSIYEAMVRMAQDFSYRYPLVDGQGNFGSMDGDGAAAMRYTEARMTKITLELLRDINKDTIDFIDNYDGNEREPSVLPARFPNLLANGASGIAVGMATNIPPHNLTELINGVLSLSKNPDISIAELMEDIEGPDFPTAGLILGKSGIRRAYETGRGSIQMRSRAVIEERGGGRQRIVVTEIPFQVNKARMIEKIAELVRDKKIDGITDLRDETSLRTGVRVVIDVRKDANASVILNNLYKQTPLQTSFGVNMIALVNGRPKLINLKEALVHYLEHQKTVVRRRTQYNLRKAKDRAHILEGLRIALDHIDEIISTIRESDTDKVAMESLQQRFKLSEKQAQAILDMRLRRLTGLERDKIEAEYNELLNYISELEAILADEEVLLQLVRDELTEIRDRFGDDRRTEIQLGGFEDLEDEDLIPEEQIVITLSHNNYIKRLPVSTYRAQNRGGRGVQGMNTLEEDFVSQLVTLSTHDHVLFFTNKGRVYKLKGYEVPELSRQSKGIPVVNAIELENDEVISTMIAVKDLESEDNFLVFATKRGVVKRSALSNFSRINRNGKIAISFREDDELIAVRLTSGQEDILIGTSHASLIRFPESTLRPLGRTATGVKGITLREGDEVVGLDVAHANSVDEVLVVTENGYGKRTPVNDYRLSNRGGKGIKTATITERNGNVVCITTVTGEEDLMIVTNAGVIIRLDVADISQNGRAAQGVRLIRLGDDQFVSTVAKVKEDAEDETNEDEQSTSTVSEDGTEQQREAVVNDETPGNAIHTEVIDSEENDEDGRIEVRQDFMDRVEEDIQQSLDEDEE
T4 sequence (P0A0K8 whole entry partner): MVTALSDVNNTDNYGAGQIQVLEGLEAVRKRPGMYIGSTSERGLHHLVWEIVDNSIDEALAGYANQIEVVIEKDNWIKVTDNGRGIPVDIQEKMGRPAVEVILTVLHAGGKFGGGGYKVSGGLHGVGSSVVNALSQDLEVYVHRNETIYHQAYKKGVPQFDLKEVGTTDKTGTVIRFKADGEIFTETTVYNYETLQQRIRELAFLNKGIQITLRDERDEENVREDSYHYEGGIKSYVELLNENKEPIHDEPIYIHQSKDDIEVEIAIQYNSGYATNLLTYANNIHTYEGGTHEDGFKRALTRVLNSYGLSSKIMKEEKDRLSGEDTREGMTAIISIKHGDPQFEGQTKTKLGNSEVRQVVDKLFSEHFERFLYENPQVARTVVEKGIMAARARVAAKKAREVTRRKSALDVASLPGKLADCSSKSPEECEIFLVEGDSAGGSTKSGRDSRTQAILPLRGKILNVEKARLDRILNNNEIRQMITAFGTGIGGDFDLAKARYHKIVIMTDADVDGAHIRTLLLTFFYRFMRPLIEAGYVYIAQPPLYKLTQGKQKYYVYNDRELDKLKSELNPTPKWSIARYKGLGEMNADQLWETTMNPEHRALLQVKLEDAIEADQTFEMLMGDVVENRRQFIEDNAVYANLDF
Nature of the experiment: biochemical. It is filed as biochemical. Particulars: for LE DNA Gyrase S. aureus: LE = (1.37/HA) × pIC50; for IC50: fluorescence plate supercoiling assay, mean of two to four measurements. The method in brief:
as §2

The next experiment deals with E. coli (QA-11.3). Description: MIC broth microdilution, E. coli QA-11.3. It counts as cell-based. Particulars: Escherichia coli, 20 h; read-out: MIC E. coli (QA-11.3). In outline: as §3
In experiment [4] the test system is P. aeruginosa RDK 184 (DSM 939). Nature of the experiment: MIC broth microdilution, P. aeruginosa. It counts as cell-based. The following applies: Pseudomonas aeruginosa, DSM939; read-out: MIC P. aeruginosa RDK 184 (DSM 939). In outline: as §3
The test system of the next experiment is E. coli N43 (CGSC# 5583). Nature of the experiment: MIC broth microdilution, E. coli N43. It counts as cell-based. The following applies: Escherichia coli. In outline: as §3
Where [5] appears, read: ATCC25922, read-out: MIC E. coli (ATCC 25922).
Setting [6] is: read-out: E. coli N43 MIC in molar.
[7] abbreviates: read-out: MIC E. coli N43 (CGSC# 5583).

T2 sequence (P0AES4 whole entry): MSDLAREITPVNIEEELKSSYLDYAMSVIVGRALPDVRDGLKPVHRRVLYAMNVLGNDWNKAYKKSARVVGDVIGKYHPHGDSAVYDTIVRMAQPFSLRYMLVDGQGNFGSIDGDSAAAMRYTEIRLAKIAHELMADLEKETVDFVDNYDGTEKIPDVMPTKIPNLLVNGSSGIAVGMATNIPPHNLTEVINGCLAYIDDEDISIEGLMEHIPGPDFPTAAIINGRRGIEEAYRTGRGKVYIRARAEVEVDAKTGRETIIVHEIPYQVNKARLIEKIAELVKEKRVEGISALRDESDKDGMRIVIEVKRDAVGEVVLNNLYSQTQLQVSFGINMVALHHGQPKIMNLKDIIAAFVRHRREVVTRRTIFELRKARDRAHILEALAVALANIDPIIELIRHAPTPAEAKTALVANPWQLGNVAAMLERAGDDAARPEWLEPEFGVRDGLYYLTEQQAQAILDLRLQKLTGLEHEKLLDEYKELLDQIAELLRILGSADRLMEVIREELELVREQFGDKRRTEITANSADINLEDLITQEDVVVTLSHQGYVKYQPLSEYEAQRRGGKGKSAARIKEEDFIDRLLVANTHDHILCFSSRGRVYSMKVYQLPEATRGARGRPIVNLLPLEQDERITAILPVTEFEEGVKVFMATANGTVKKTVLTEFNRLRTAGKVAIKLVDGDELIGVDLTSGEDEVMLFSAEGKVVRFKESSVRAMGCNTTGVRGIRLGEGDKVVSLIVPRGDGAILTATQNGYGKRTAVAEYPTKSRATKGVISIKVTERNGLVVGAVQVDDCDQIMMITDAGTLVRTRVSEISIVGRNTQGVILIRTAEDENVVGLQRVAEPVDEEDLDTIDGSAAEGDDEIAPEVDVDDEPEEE

In the case of `COc1ccc2nccc(CCN3CCC(NCc4nc5ccccc5n4C)CC3)c2n1` [Compound 3, 1-(2-(6-Methoxy-1,5-naphthyridin-4-yl)ethyl)-N-((1-methyl-1H-benzo[d]imidazol-2-yl)methyl)piperidin-4-amine], the IC50 is more than 100000 nM on S. aureus Topo IV; more than 100000 nM against E. coli DNA gyrase; 1180 ± 90 nM against E. coli Topo IV; more than 50000 nM with HUVEC; 1600 ± 350 nM at S. aureus DNA gyrase. The MIC with E. coli (ATCC 25922) (ATCC25922, 20 h, E. coli ATCC 25922, read-out: E. coli MIC (converted)) is 297 µM; with E. coli (ATCC 25922) (setting [5]) it was more than 128 µg/mL; in [1], more than 128 µg/mL; in experiment [2], 4 µg/mL (≈ 9.29 µM); in experiment [3], less than 1 µg/mL; in the experiment with E. coli (QA-11.3), 128 µg/mL (≈ 297 µM). The MIC in experiment [4] is more than 128 µg/mL; with E. coli N43 (CGSC# 5583) (setting [6]), 37.2 µM; in the experiment on E. coli N43 (CGSC# 5583) (setting [7]), 16 µg/mL. Moreover, the “LE Topo IV E. coli” value on E. coli Topo IV was found to be 0.25. Also, the “LE DNA Gyrase S. aureus” value at S. aureus DNA gyrase was 0.25.
In the case of `C=CCn1cc(CNC2CCN(CCc3ccnc4ccc(OC)nc34)CC2)cn1` [Compound 10, N-((1-Allyl-1H-pyrazol-4-yl)methyl)-1-(2-(6-methoxy-1,5-naphthyridin-4-yl)ethyl)piperidin-4-amine], the IC50 at S. aureus Topo IV is more than 100000 nM; on E. coli DNA gyrase, 16700 ± 930 nM; at E. coli Topo IV, 280 ± 10 nM; in the experiment with HUVEC it was more than 50000 nM; against S. aureus DNA gyrase, 1100 ± 170 nM. For the same compound, the “LE DNA Gyrase E. coli” value on E. coli DNA gyrase (LE = (1.37/HA) × pIC50) came out at 0.22. The MIC in the experiment with E. coli (ATCC 25922) (ATCC25922, E. coli ATCC 25922, read-out: E. coli MIC (converted)) was 39.4 µM; in the experiment on E. coli (ATCC 25922) (setting [5]), 16 µg/mL; in [1] it was 32 µg/mL (≈ 78.7 µM); in experiment [2], 8 µg/mL (≈ 19.7 µM); in experiment [3], 4 µg/mL (≈ 9.84 µM); with E. coli (QA-11.3), 8 µg/mL (≈ 19.7 µM). The MIC in experiment [4] was more than 128 µg/mL; with E. coli N43 (CGSC# 5583) (setting [6]), 2.46 µM; in the experiment with E. coli N43 (CGSC# 5583) (setting [7]) it was 1 µg/mL. Besides, the “LE Topo IV E. coli” value on E. coli Topo IV came out at 0.30. Further, the “LE DNA Gyrase S. aureus” value on S. aureus DNA gyrase is given as 0.27.
